Measurements published in BigSolDB 2.1.

CC(=O)c1ccc(S(C)(=O)=O)cc1
solubility (mole fraction)
Conditions	in cyclohexane	in ethanol	in ethyl acetate	in ethylene glycol	in isobutanol	in methanol	in n-butanol	in n-hexane	in n-propanol
278.15 K	0.0049	0.0123	0.0253	0.0179	0.0074	0.0161	0.0087	0.003	0.0104
283.15 K	0.0056	0.0137	0.027	0.0194	0.0083	0.0173	0.0096	0.0038	0.0114
288.15 K	0.0065	0.0154	0.0295	0.0211	0.0094	0.019	0.0111	0.0049	0.0129
293.15 K	0.0079	0.0172	0.0326	0.0238	0.0108	0.0215	0.0125	0.0062	0.0144
298.15 K	0.0091	0.0197	0.0361	0.0273	0.0124	0.0246	0.014	0.0077	0.0162
303.15 K	0.0109	0.0221	0.0402	0.0307	0.0142	0.0281	0.016	0.0099	0.0185
308.15 K	0.0129	0.0249	0.0446	0.035	0.016	0.0321	0.018	0.0121	0.021
313.15 K	0.0154	0.0283	0.0501	0.0395	0.0186	0.0369	0.0205	0.0146	0.0241
318.15 K	0.0182	0.0325	0.0565	0.045	0.0211	0.0421	0.0234	0.0171	0.0273
323.15 K	0.0217	0.0381	0.0639	0.0507	0.0246	0.0481	0.0271	0.0204	0.0318
328.15 K	0.0255	0.0441	0.0745	0.0597	0.0284	0.0568	0.0315	0.0241	0.0365
